According to US20230357179A1, “RAF KINASE INHIBITORS AND METHODS OF USE THEREOF” (Deciphera Pharmaceuticals, LLC, priority 2021, published 2023):

Columns and labels:
A-Raf kinase = biological target: T1, A-Raf kinase (Homo sapiens, UniProt P10398, Y301D/Y302D); assay: Biochemical assay for A-Raf.1 (coupled pyruvate kinase/lactate dehydrogenase); details: read-out: ARAF.1 IC50
T1 construct: purchased Sigma
Summary of the method: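 A-Raf (5.55 nM) phosphorylating 30.1 nM MEK with 1 mM ATP was monitored by pyruvate kinase/lactate dehydrogenase-coupled NADH oxidation at 340 nm for 6 h at 30° C, in pH 7.5 Tris buffer with 15 mM MgCl2, 1% DMSO. Rates from 4–5 h gave percent inhibition; IC50 by four-parameter fit.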

A375 cells = assay: A375 cell proliferation assay (1), resazurin, 96-well; assay type: cell-based; details: Homo sapiens, A-375, inhibition of cell proliferation
Summary of the method: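 Viability was read by resazurin fluorescence at 540 nm excitation and 600 nm emission, using a 440 μM solution added for 5–6 h at the end of culture. IC50 came from the curve fit.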

Miapaca-2 cells = assay: MiaPaca-2 cell proliferation assay (1), resazurin, 96-well; assay type: cell-based; details: Homo sapiens, MIA PaCa-2, inhibition of cell proliferation
Summary of the method: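 Three thousand cells per well in DMEM with 10% FBS and 2.5% horse serum exposed to serially diluted compound in triplicate for 67-72 h at 37 °C, 5% CO2. Viability by resazurin (additional 5-6 h), fluorescence ex 540/em 600 nm; IC50 calculated.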

WM3928 cells = assay: WM3928 cell proliferation assay (1), resazurin, 96-well; assay type: cell-based; details: inhibition of cell proliferation
Protocol: WM3928 Cell Proliferation Assay (1)
WM3928 cells (#WM3928-01-0001) are obtained from Rockland Immunochemicals Inc (Gilbertsville, PA). Briefly, cells were grown in MCDB 153 medium (Sigma, #M7403, St. Louis, MO) supplemented with 20% Leibovitz's L-15 (ThermoFisher #11415-064, Waltham, MA), 2% heat inactivated fetal bovine serum (ThermoFisher, #A3840001, Waltham, MA), 5 μg/mL Insulin (Bovine Pancreas) (Sigma, #I0516, St. Louis, MO), 1.68 mM Calcium Chloride (Sigma, #C-34006, St. Louis, MO) and 1% Penicillin/Streptomycin/L-Glutamine (ThermoFisher #10378016, Waltham, MA) at 37° C., 5% CO2, and 95% humidity. Cells are expanded until reaching 70-95% confluency at which point they are subcultured or harvested for assay use. A serial dilution of test compound is dispensed into a 96-well black clear bottom plate in triplicate. Three thousand cells are added per well in 200 μL complete growth medium in the 96-well plate. Plates are incubated for 67-72 hours at 37° C., 5% CO2, and 95% humidity. At the end of the incubation, 40 μL of a 440 μM solution of resazurin (Sigma, #199303, St. Louis, MO) in PBS is added to each well of the plate and plates are incubated for an additional 6-7 hours at 37° C., 5% CO2, and 95% humidity. Plates are read on a Synergy2 or equivalent reader (Biotek, Winooski VT) using an excitation of 540 nm and an emission of 600 nm. Data is analyzed using Prism software (GraphPad, San Diego, CA) to calculate IC50 values.

T1 sequence (P10398 with tags, fused parts or gaps Y301D/Y302D): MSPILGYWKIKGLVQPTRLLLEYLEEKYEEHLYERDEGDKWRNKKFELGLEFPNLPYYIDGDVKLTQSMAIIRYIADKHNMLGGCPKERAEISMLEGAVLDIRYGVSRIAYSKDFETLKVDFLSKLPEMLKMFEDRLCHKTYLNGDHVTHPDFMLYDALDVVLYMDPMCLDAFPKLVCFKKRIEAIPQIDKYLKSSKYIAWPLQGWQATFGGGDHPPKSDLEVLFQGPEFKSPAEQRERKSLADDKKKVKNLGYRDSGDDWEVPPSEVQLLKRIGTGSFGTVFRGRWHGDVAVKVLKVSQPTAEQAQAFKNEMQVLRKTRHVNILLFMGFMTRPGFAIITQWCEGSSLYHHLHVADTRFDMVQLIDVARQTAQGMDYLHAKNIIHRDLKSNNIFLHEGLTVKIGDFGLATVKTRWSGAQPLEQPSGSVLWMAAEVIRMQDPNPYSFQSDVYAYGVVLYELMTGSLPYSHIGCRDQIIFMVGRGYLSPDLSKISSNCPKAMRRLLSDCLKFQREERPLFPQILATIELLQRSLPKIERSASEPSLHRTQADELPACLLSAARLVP

Row | SMILES | IC50 (A-Raf kinase) [nM] | IC50 (A375 cells) [nM] | IC50 (Miapaca-2 cells) [nM] | IC50 (WM3928 cells) [nM]
1 | COC(=O)Nc1cc(-c2cc(-c3cc(NC(=O)NCCC4(C)CC4)ccc3F)cc(OCCO)n2)ccn1 [Example 187] | > 1000 | 1000 to 10000 | – | –
2 | CNC(=O)c1cc(-c2cnnc(-c3cc(NC(=O)N4CC[C@@H](OC)C4)ccc3C)c2)ccn1 [Example 181] | > 1000 | 1000 to 10000 | – | –
3 | CNC(=O)c1cc(-c2cnnc(-c3cc(NC(=O)N4CC[C@@H](OC(F)(F)F)C4)ccc3C)c2)ccn1 [Example 182] | > 1000 | 1000 to 10000 | – | –
4 | COC(=O)Nc1cc(-c2nc(OCCO)cc(-c3cc(NC(=O)NC4CC(C)(C)C4)cnc3C)n2)ccn1 [Example 174] | > 1000 | 1000 to 10000 | – | –
5 | COC(=O)Nc1cc(-c2cnnc(-c3cc(NC(=O)N4CCC(CC(F)(F)F)C4)ccc3C)c2)ccn1 (stereo not drawn) [Example 186] | > 1000 | 1000 to 10000 | – | 500 to 1000
6 | Cc1ccc(NC(=O)N2CC[C@@H](C)C2)cc1-c1cncc(-c2cc(NC(=O)C3CC3)ncn2)c1 [Example 219] | > 1000 | 500 to 1000 | – | 500 to 1000
7 | COC(=O)Nc1cc(-c2nccc(-c3cc(NC(=O)N4CCC(C(F)(F)F)C4)ccc3C)n2)ccn1 (stereo not drawn) [Example 193] | > 1000 | 1000 to 10000 | – | –
8 | COC[C@H]1CCN(C(=O)Nc2cnc(C)c(-c3ccnc(-c4ccnc(NC(=O)OC)c4)c3)c2)C1 [Example 176] | > 1000 | 1000 to 10000 | – | –
9 | Cc1ccc(NC(=O)N2CCC(CC(F)(F)F)C2)cc1-c1cncc(-c2cc(NC(=O)C3CC3)ncn2)c1 (stereo not drawn) [Example 194] | > 1000 | ≤ 100 | – | ≤ 100
10 | CNC(=O)c1cc(-c2cnnc(-c3cc(NC(=O)N4CCC(C(C)(C)C)C4)ccc3C)c2)ccn1 (stereo not drawn) [Example 180] | > 1000 | 100 to 500 | – | –
11 | COC[C@@H]1CCN(C(=O)Nc2cnc(C)c(-c3ccnc(-c4ccnc(NC(=O)OC)c4)c3)c2)C1 [Example 179] | > 1000 | 1000 to 10000 | – | –
12 | CC(=O)Nc1cc(-c2cc(-c3cc(NC(=O)Nc4ccc(C(F)(F)F)cc4)cnc3C)ccn2)ccn1 [Example 48] | > 1000 | 1000 to 10000 | 1000 to 10000 | –
13 | CNC(=O)c1cc(-c2cc(-c3cc(NC(=O)Nc4ccnc(C(C)(C)C#N)c4)ccc3C)ccn2)ccn1 [Example 69] | > 1000 | 1000 to 10000 | 1000 to 10000 | –
14 | CC(=O)Nc1cc(-c2cc(-c3cc(NC(=O)NCCC4(C)CC4)ccc3C)cc(N3CCOCC3)n2)ccn1 [Example 57] | 500 to 1000 | 100 to 500 | 1000 to 10000 | –
15 | Cc1ccc(NC(=O)NCCC(C)(C)C)cc1-c1ccnc(N2CCOCC2)c1 [Example 18] | > 1000 | 1000 to 10000 | 1000 to 10000 | –
16 | CNC(=O)c1cc(-c2cnnc(-c3cc(NC(=O)N4CC[C@H](OC)C4)ccc3C)c2)ccn1 [Example 177] | > 1000 | 1000 to 10000 | – | –
17 | COC(C)(C)CCNC(=O)Nc1cc(-c2cccc(-c3ccnc(NC(C)=O)c3)c2)c(C)cc1F [Example 71] | 100 to 500 | 1000 to 10000 | 1000 to 10000 | –
18 | Cc1ccc(NC(=O)N[C@H]2C[C@](C)(F)C2)cc1-c1cc(OCCO)nc(-c2ccnc(NC(=O)CN(C)C)c2)c1 [Example 50] | > 1000 | 1000 to 10000 | 1000 to 10000 | –
19 | CC(=O)Nc1cc(-c2cc(-c3cc(NC(=O)NC4CC(C)(C)C4)c(F)cc3C)cc(OCCO)n2)ccn1 [Example 47] | 100 to 500 | ≤ 100 | 500 to 1000 | –
20 | Cc1ccc(NC(=O)Nc2cn(C)nc2C(F)(F)F)cc1-c1cc(OCCO)nc(N2CCOCC2)c1 [Example 42] | > 1000 | 1000 to 10000 | 1000 to 10000 | –
21 | CC(=O)Nc1cc(-c2cc(-c3cc(NC(=O)NC4CCCCC4)c(F)cc3C)cc(OCCO)n2)ccn1 [Example 53] | 100 to 500 | ≤ 100 | 500 to 1000 | –
22 | Cc1ccc(NC(=O)N[C@H]2C[C@](C)(F)C2)cc1-c1cc(-c2ccnc(NC(=O)C3CC3)c2)nc(C2CC2)c1 [Example 61] | > 1000 | 1000 to 10000 | 1000 to 10000 | –
23 | CC(=O)Nc1cc(-c2cc(-c3cc(NC(=O)NCCC4(C)CC4)c(F)cc3C)cc(C)n2)ccn1 [Example 55] | 100 to 500 | 1000 to 10000 | 1000 to 10000 | –
24 | CNC(=O)c1cc(-c2cnnc(-c3cc(NC(=O)N4CCC(C(C)(C)C)C4)cnc3C)c2)ccn1 (stereo not drawn) [Example 184] | > 1000 | 1000 to 10000 | – | –
25 | Cc1ccc(NC(=O)Nc2cnc(C(F)(F)F)s2)cc1-c1cc(OCCO)nc(N2CCOCC2)c1 [Example 43] | > 1000 | ≤ 100 | 100 to 500 | –
26 | CC(=O)Nc1cc(-c2cc(-c3cc(NC(=O)NCCC4(C(F)(F)F)CC4)c(F)cc3C)cc(C3CC3)n2)ccn1 [Example 54] | > 1000 | 100 to 500 | 1000 to 10000 | –
27 | COC(=O)Nc1cc(-c2cnnc(-c3cc(NC(=O)N4CCC(C(C)(C)C)C4)ccc3C)c2)ccn1 (stereo not drawn) [Example 185] | > 1000 | 100 to 500 | – | –
28 | CC(=O)Nc1cc(-c2cc(-c3cc(NC(=O)NCCC4(C)CC4)c(F)cc3C)cc(C3CC3)n2)ccn1 [Example 51] | > 1000 | 1000 to 10000 | 1000 to 10000 | –
29 | CNC(=O)c1cc(-c2cnnc(-c3cc(NC(=O)N4CCC5(CC5)C4)ccc3C)c2)ccn1 [Example 178] | > 1000 | 1000 to 10000 | – | –

The next lines start with results.

Row | IC50 (A-Raf kinase) [nM] | IC50 (A375 cells) [nM] | IC50 (Miapaca-2 cells) [nM] | SMILES | IC50 (WM3928 cells) [nM]
30 | > 1000 | 1000 to 10000 | 1000 to 10000 | COC(C)(C)CCNC(=O)Nc1ccc(C)c(-c2cc(-c3ccnc(NC(C)=O)c3)n(C)c(=O)c2)c1 [Example 60] | –
31 | > 1000 | 500 to 1000 | – | COC(C)(C)CCNC(=O)Nc1cc(-c2cnnc(-c3ccnc(NC(=O)C4CC4)c3)c2)c(C)cc1F [Example 173] | –
32 | > 1000 | 100 to 500 | – | Cc1ccc(NC(=O)N2CCC3(CC3)C2)cc1-c1cncc(-c2cc(NC(=O)C3CC3)ncn2)c1 [Example 218] | 100 to 500
33 | > 1000 | 1000 to 10000 | 1000 to 10000 | CNC(=O)c1cc(-c2cccc(-c3cc(NC(=O)NCCC(C)(C)OC)c(F)cc3C)c2)ccn1 [Example 72] | –
34 | > 1000 | 1000 to 10000 | – | COC(=O)Nc1cc(-c2cnnc(-c3cc(NC(=O)N4CCC(C(C)(C)O)C4)ccc3C)c2)ccn1 (stereo not drawn) [Example 206] | 1000 to 10000
35 | 500 to 1000 | ≤ 100 | 1000 to 10000 | CC(=O)Nc1cc(-c2cc(-c3cc(NC(=O)NC4CCC(F)(F)CC4)c(F)cc3C)cc(OCCO)n2)ccn1 [Example 63] | –
36 | 100 to 500 | 100 to 500 | – | CC(=O)Nc1cc(-c2cc(-c3cc(NC(=O)NCCC4(C)CC4)c(F)cc3C)cc(NCCO)n2)ccn1 [Example 175] | –
37 | > 1000 | 500 to 1000 | – | COC(=O)Nc1cc(-c2cc(-c3cc(NC(=O)NCCC4(C)CC4)c(F)cc3F)cc(OCCO)n2)ccn1 [Example 188] | –
38 | > 1000 | 100 to 500 | 1000 to 10000 | Cc1cc(F)c(NC(=O)NCCC2(C(F)(F)F)CC2)cc1-c1cc(OCCO)nc(C2CCOCC2)c1 [Example 24] | –
39 | > 1000 | 1000 to 10000 | 1000 to 10000 | CC(=O)Nc1cc(-c2cc(-c3cc(NC(=O)NCC45CC(F)(C4)C5)c(F)cc3C)cc(OCCO)n2)ccn1 [Example 52] | –
40 | 100 to 500 | 1000 to 10000 | 1000 to 10000 | CC(=O)Nc1cc(-c2cc(-c3cc(NC(=O)NCCC(C)(C)C#N)c(F)cc3C)cc(C3CC3)n2)ccn1 [Example 59] | –
41 | > 1000 | 100 to 500 | 1000 to 10000 | CNC(=O)c1cc(-c2cc(-c3cc(NC(=O)NC4CCCCC4)c(F)cc3C)cc(OCCO)n2)ccn1 [Example 205] | –
42 | 100 to 500 | 1000 to 10000 | 1000 to 10000 | CC(=O)Nc1cc(-c2cc(-c3cc(NC(=O)N[C@H]4C[C@](C)(F)C4)ccc3C)cc(OCCO)n2)ccn1 [Example 49] | –
43 | > 1000 | 1000 to 10000 | 1000 to 10000 | Cc1ccc(NC(=O)Nc2ccnc(C(C)(C)C#N)c2)cc1-c1ccnc(-c2ccnc(C(=O)NC3CC3)c2)c1 [Example 68] | –
44 | > 1000 | 1000 to 10000 | 1000 to 10000 | COC(C)(C)CCNC(=O)Nc1ccc(C)c(-c2cc(-c3cnn(C)c3)nc(N3CCOCC3)c2)c1 [Example 38] | –
